Reference: patent US20240067631A1, “PYRAZOLE DERIVATIVES USEFUL AS NAMPT MODULATORS” (Cytokinetics, Inc., priority 2020, published 2024)

Experiments:
human NAMPT = human NAMPT (Homo sapiens (Human), UniProt P43490); assay: Human recombinant enzyme assay (NMN fluorescence biochemical assay); conditions: 6 nM human NAMPT, 60 min; for AC1.4 Human: concentration of compound that generates 40% higher activity over basal; for EC50: concentration that gives half-maximal activation
Method in brief: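 Recombinant human NAMPT (6 nM) with 2.5 mM ATP, […] PRPP and […] nicotinamide in HEPES pH 7.2 with DTT, CHAPS, NaCl, MgCl2; 60 min at ambient temperature. NMN derivatised with acetophenone/KOH/formic acid, fluorescence read at 355/460 nm. AC1.4 (40% above basal) and EC50 reported.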

endogenous NAMPT = endogenous NAMPT (Homo sapiens (Human), UniProt P43490); assay: Cellular NAD+ modulation assay in SH-SY5Y cells with doxorubicin; type: cell-based; conditions: Neuroblastoma SH-SY5Y cells, 40 hours, cellular NAD levels; for EC50: read-out: SY5Y (human) NAD Cell Dox EC50
Sequence of endogenous NAMPT (P43490 whole entry): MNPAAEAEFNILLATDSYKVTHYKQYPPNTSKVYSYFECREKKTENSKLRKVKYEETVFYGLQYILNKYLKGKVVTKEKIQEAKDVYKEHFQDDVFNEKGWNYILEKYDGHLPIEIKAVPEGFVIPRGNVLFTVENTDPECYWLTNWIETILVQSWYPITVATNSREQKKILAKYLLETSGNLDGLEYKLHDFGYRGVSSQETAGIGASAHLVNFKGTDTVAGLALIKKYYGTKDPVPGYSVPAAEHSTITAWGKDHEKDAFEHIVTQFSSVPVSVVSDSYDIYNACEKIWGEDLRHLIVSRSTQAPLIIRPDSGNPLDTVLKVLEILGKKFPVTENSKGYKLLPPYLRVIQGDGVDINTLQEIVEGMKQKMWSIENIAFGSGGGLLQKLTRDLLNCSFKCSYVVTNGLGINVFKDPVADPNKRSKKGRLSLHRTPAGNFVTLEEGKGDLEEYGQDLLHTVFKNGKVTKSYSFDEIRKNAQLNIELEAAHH
Procedure: The compounds described herein were also assayed for their ability to stimulate the endogenous NAMPT in a native cellular environment in the cellular NAD+ modulation assay, which measures the ability of the compound to modulate cellular NAD levels. Increased levels of NAD are expected by compounds that permeate the cells and activate the catalytic activity of the endogenous NAMPT.
Neuroblastoma SH-SY5Y cells were grown in 1:1 mixture of Eagle's Minimum Essential Medium and F12 Medium, along with 10% fetal bovine serum, in a humidified incubator with an atmosphere of 95% air and 5% CO2 at 37° C. The assays were initiated by plating 20 μL of SH-SY5Y cells in culture medium with 0.1% fetal bovine serum, at a density of 5000 cells per well to a 384-well Corning™ BioCoat™ Poly-D-Lysine Multiwell Plates. The plates were incubated in the 37° C. incubators for a period of 5 hours. Compounds in DMSO were added to the plates in a volume of 120 nL using the Labcyte Echo Liquid Handlers. 5 μL of a 1.5 uM Doxorubicin solution in assay medium is added to each well. The plates are then incubated for 40 hours. 30 μL of a readout-solution containing 0.2 U/mL Diaphorase enzyme, 40 uM resazurin, 10 uM FMN, 0.8 U/mL Alcohol dehydrogenase, 3% ethanol, 0.4 mg/mL bovine serum albumin, 0.2% Triton X-100 in 100 mM Tris-HCl, 30 mM EDTA, pH 8.4. The plates were read for fluorescence (Excitation/Emission=540 nm/590 nm) using an EnVision plate reader after 60 mins of incubation at ambient temperature.

Sequence of human NAMPT (P43490 whole entry): as above

| SMILES | AC1.4 Human (human NAMPT) [µM] | EC50 (human NAMPT) [nM] | SY5Y (human) NAD Cell Dox AC0.3 (endogenous NAMPT) [µM] | EC50 (endogenous NAMPT) [nM] |
| --- | --- | --- | --- | --- |
| Cc1nc(C(=O)N2CCC[C@@H]2c2cccc(Cl)c2)nc(NCCc2cn[nH]c2)c1C [Compound 13, (R)-(4-((2-(1H-pyrazol-4-yl)ethyl)amino)-5,6-dimethylpyrimidin-2-yl)(2-(3-chlorophenyl)pyrrolidin-1-yl)methanone] | 0.035 | 3740 | 0.24 | 230 |
| Cc1nc(C(=O)N(C)C(c2cccc(F)c2)c2nccn2C)nc(NCCc2cn[nH]c2)c1C (stereo not shown) [Compound 5, 4-((2-(1H-pyrazol-4-yl)ethyl)amino)-N-((3-flurophenyl)(1-methyl-1H-imidazol-2-yl)methyl)-N,5,6-trimethylpyrimidine-2-carboxamide] | 0.0235 | 449 | 2.68 | 1760 |
| Cc1nc(C(=O)N2CCC[C@@H]2c2cccc(F)c2)nc(NCCc2cn[nH]c2)c1C [Compound 15, (R)-(4-((2-(1H-pyrazol-4-yl)ethyl)amino)-5,6-dimethylpyrimidin-2-yl)(2-(3-fluorophenyl)pyrrolidin-1-yl)methanone] | 0.051 | 390 | 0.26 | 190 |
| Cc1nc(C(=O)N2CC(O)(c3ccccc3)C2)nc(NCCc2cn[nH]c2)c1C [Compound 22, (4-((2-(1H-pyrazol-4-yl)ethyl)amino)-5,6-dimethylpyrimidin-2-yl)(3-hydroxy-3-phenylazetidin-1-yl)methanone] | 1.956 | 12800 | 7.15 | 8840 |
| Cc1nc(C(=O)N[C@H](C)c2ccccc2)nc(NCCc2cn[nH]c2)c1C [Compound 17, (R)-4-((2-(1H-pyrazol-4-yl)ethyl)amino)-5,6-dimethyl-N-(1-phenylethyl)pyrimidine-2-carboxamide] | 0.0715 | 549 | 0.24 | 440 |
| Cc1nc(C(=O)N[C@H](C)c2cccs2)nc(NCCc2cn[nH]c2)c1C [Compound 14, (R)-4-((2-(1H-pyrazol-4-yl)ethyl)amino)-5,6-dimethyl-N-(1-(thiophen-2-yl)ethyl)pyrimidine-2-carboxamide] | 0.054 | 156 | 0.28 | 480 |
| Cc1nc(C(=O)N[C@H](C)c2cccc(F)n2)nc(NCCc2cn[nH]c2)c1C [Compound 4, (R)-4-((2-(1H-pyrazol-4-yl)ethyl)amino)-N-(1-(6-fluoropyridin-2-yl)ethyl)-5,6-dimethylpyrimidine-2-carboxamide] | 0.02 | 106 | 0.07 | 110 |
| Cc1nc(C(=O)N[C@@H](C)c2cccc(F)c2)nc(NCCc2cn[nH]c2)c1C [Compound 10, (S)-4-((2-(1H-pyrazol-4-yl)ethyl)amino)-N-(1-(3-fluorophenyl)ethyl)-5,6-dimethylpyrimidine-2-carboxamide] | 0.046 | 520 | 0.2 | 470 |
| Cc1nc(C(=O)NC(C)(C)c2ccccc2)nc(NCCc2cn[nH]c2)c1C [Compound 21, 4-((2-(1H-pyrazol-4-yl)ethyl)amino)-5,6-dimethyl-N-(2-phenylpropan-2-yl)pyrimidine-2-carboxamide] | 0.0815 | 550 | 0.13 | 280 |
| Cc1nc(C(=O)NC(c2cccc(F)c2)c2nccn2C)nc(NCCc2cn[nH]c2)c1C (stereo not shown) [Compound 20, 4-((2-(1H-pyrazol-4-yl)ethyl)amino)-N-((3-fluorophenyl)(1-methyl-1H-imidazol-2-yl)methyl)-5,6-dimethylpyrimidine-2-carboxamide] | 0.062 | 848 | 2.97 | 8790 |
| Cc1nc(C(=O)N2CCNCC2c2cccc(F)c2)nc(NCCc2cn[nH]c2)c1C (stereo not shown) [Compound 24, (4-((2-(1H-pyrazol-4-yl)ethyl)amino)-5,6-dimethylpyrimidin-2-yl)(2-(3-fluorophenyl)piperazin-1-yl)methanone] | 0.0955 | 770 | 2.49 | 2260 |
| Cc1nc(C(=O)NC(c2cccc(F)c2)c2ncco2)nc(NCCc2cn[nH]c2)c1C (stereo not shown) [Compound 23, 4-((2-(1H-pyrazol-4-yl)ethyl)amino)-N-((3-fluorophenyl)(oxazol-2-yl)methyl)-5,6-dimethylpyrimidine-2-carboxamide] | 0.0955 | 3240 | 1.57 | 3250 |
| Cc1nc(C(=O)N2CCOC[C@H]2c2ccccc2)nc(NCCc2cn[nH]c2)c1C [Compound 16, (R)-(4-((2-(1H-pyrazol-4-yl)ethyl)amino)-5,6-dimethylpyrimidin-2-yl)(3-phenylmorpholino)methanone] | 0.0585 | 621 | 0.41 | 330 |
| Cc1nc(C(=O)N2CCOCC2c2cccc(F)c2)nc(NCCc2cn[nH]c2)c1C (stereo not shown) [Compound 7, (4-((2-(1H-pyrazol-4-yl)ethyl)amino)-5,6-dimethylpyrimidin-2-yl)(3-(3-fluorophenyl)morpholino)methanone] | 0.029 | 326 | 0.19 | 190 |

Further lines, results first:

| AC1.4 Human (human NAMPT) [µM] | EC50 (human NAMPT) [nM] | SY5Y (human) NAD Cell Dox AC0.3 (endogenous NAMPT) [µM] | EC50 (endogenous NAMPT) [nM] | SMILES |
| --- | --- | --- | --- | --- |
| – | – | 0.17 | – | C[C@@H](NC(=O)c1cc(Br)cc(NCCc2cn[nH]c2)n1)c1cccc(F)n1 [Compound 151, (R)-6-((2-(1H-pyrazol-4-yl)ethyl)amino)-4-bromo-N-(1-(6-fluoropyridin-2-yl)ethyl)picolinamide] |
| 0.02 | – | 0.01 | – | Cc1nc(C(=O)N[C@H](C)c2cccc(F)n2)nc(NCCc2cn[nH]c2)c1F [Compound 149, (R)-4-((2-(1H-pyrazol-4-yl)ethyl)amino)-5-fluoro-N-(1-(6-fluoropyridin-2-yl)ethyl)-6-methylpyrimidine-2-carboxamide] |
| 0.1215 | 429 | 0.26 | 720 | Cc1nc(C(=O)N[C@H](C)c2ccccc2Cl)nc(NCCc2cn[nH]c2)c1C [Compound 26, (R)-4-((2-(1H-pyrazol-4-yl)ethyl)amino)-N-(1-(2-chlorophenyl)ethyl)-5,6-dimethylpyrimidine-2-carboxamide] |
| 0.1305 | 1630 | 0.28 | 740 | Cc1nc(C(=O)NCC(C)(C)c2cccc(F)c2)nc(NCCc2cn[nH]c2)c1C [Compound 27, 4-((2-(1H-pyrazol-4-yl)ethyl)amino)-N-(2-(3-fluorophenyl)-2-methylpropyl)-5,6-dimethylpyrimidine-2-carboxamide] |
| <0.003 | – | 0.02 | – | Cc1nc(C(=O)N[C@H](C)c2cccc(F)n2)nc(NCCc2cn[nH]c2)c1Cl [Compound 147, (R)-4-((2-(1H-pyrazol-4-yl)ethyl)amino)-5-chloro-N-(1-(6-fluoropyridin-2-yl)ethyl)-6-methylpyrimidine-2-carboxamide] |
| 0.1725 | 741 | 0.88 | 1600 | Cc1nc(C(=O)N[C@H](C)c2ncccc2Cl)nc(NCCc2cn[nH]c2)c1C [Compound 30, (R)-4-((2-(1H-pyrazol-4-yl)ethyl)amino)-N-(1-(3-chloropyridin-2-yl)ethyl)-5,6-dimethylpyrimidine-2-carboxamide] |
